For test [1], the system named is Aedes aegypti (Orlando strain) females. Nature of the test: Host-seeking screening assay (miniport olfactometer). Type of test: in vivo. The following applies: fed 1 μM in saline, tested 48 h post-meal; for Attraction (relative to saline): per-compound value of Fig. 3C. Here is the method:
Groups of 60–150 females were placed in bucket cages with a diameter of 21.6 cm and height of 16.5 cm (VWR) and fasted with access to water for 24 h prior to feeding. Meals were delivered to females via Glytube membrane feeders as described previously. Meals consisted of 1.5 ml sheep blood (HemoStat Laboratories), saline (400 mM NaHCO3 + dih2O), or saline and test compound. Lyophilized compounds were stored at room temperature until use. High-concentration stocks (30 mM in 100% dimethyl sulfoxide [DMSO]) (Sigma-Aldrich) were stored at −20 °C and diluted in saline immediately prior to feeding. Once prepared, meals and glycerol heating elements were warmed in a 42 °C water bath for 15 min to provide warmth to attract mosquitos to feed. ATP (1 mM final concentration) and test compounds (1 μM final concentration) were added prior to placing the meal on top of the mesh on the cage containing female mosquitos. Females were allowed 15–20 min to feed to repletion. Abdominal engorgement was scored by eye and confirmed by weighing females to ensure full feeding (Data S1). […] Females were returned to their original cage with a diH2O wick for 48 h prior to behavioral testing. The lethality of each compound was measured by counting the number of dead females in each cage 24 h post-meal.
Miniport olfactometers were fabricated in-house as described previously. Information regarding design, construction, and use can be found at https://github.com/VosshallLab/Miniport-Construction. Miniport canisters consisted of a 6″ × 3″ × 3″ acrylic tube with a mesh screen to allow for air flow. Groups of 10–20 females were loaded into canisters 24 h post-meal. Females were left in canisters overnight to acclimate with two cotton balls soaked in diH20 to prevent desiccation. Behavior trials began 48 h post-meal. Canisters were randomly assigned to attraction traps 1–4 and given 5 min to acclimate. The stimulus end of the trap was connected to a flowmeter that supplied 5% CO2 at a rate of 30 ml/min. Thirty seconds of CO2 flow was supplied to activate females prior to opening the sliding door. Once opened, the sliding door gave females access to the attraction trap baited with a human-scented nylon stocking previously worn by the same experimenter for 8–10 h to collect body odor and stored in a plastic bag at −20 °C until use. After 5 min, the sliding door was closed and attraction was scored as mosquitoes in the attraction trap/total number of mosquitoes. For each experiment data were normalized to the matched average saline attraction from the same experiment (% attracted/average saline attraction). Any dead mosquitoes were excluded from the analysis. Non-fed females and blood-fed females served as environmental control groups while the saline-fed females served as the vehicle control each day. If non-fed or saline-fed females were less than 50% attracted or if blood-fed females were more than 20% attracted behavioral trials were halted and all data from that experimental day were discarded.

The target in test [2] is Ae. aegypti NPYLR7 (Aedes aegypti, UniProt U5N1H5). Nature of the test: In vitro calcium (GCaMP6s) FLIPR assay in HEK293T cells transfected with NPYLR7. The class given is cell-based. The following applies: for activation at 100 µM: single replicate of the dose-response curve; for RFU: assay date 1/11/20 plate 1, duplicate wells, listed as TDI-012615-NX-1. Here is the method: The in vitro screening assay was adapted from, and carried out at HD Biosciences (HDB, Shanghai) as follows: HEK293T (Thermo Fisher Scientific) cells were grown in Dulbecco’s modified Eagle medium (DMEM) (high glucose, with glutamine), 10% fetal bovine serum, 1% penicillin–streptomycin (Pen/Strep), seeded in a 75 cm^2 flask, and incubated at 37 °C and 5% CO2. Cells were transiently transfected with 1 μg of each plasmid expressing GCaMP6s (Addgene […]) (Chen et al., 2013), mouse Gqα15 (Addgene #40753) (Offermanns and Simon, 1995) and Ae. aegypti NPYLR7 (Addgene #52392) (Duvall et al. 2019) using Lipofectamine 2000 (Invitrogen) in 4 ml of Opti-MEM (Invitrogen). This mixture was added to a plate after 20 min and incubated for 6–8 h. Cells were then trypsinized, resuspended in phenol-free media, and plated in a 384-well plate (Greiner Bio-One) at a density of 20,000 cells per 40 μl, and incubated overnight (37 °C, 5% CO2). Cells were imaged directly in phenol-free media. Plates were loaded into a Molecular Devices fluorescence imaging plate reader (FLIPR) with an excitation wavelength of 470–495 nm and an emitted wavelength of 515–575 nm. Plates were imaged every second for 5 min. After 30 s of baseline fluorescence recording, 10 μl of the test compound in reading buffer [Hank’s Balanced Salt Solution (Gibco) + 20 mM HEPES (Sigma-Aldrich)] was added. Concentrations tested ranged from 0 to 100 μM. Data were collected in raw fluorescence units (RFU).
Each test plate included replicates of 10 μM FMRFa3 (H‐Ala‐Gly‐Gln‐Gly‐Phe‐Met‐Arg‐Phe‐NH2), an Ae. aegypti neuropeptide agonist of NPYLR7 used to calculate the hundred percent effect (HPE). The zero percent effect (ZPE) control was calculated as a response to buffer alone. The Z′ factor was calculated for each plate by Z^′=1-3σHPE+3σZPE/|μHPE-μZPE| . Plates with Z′ < 0.5 were excluded from analysis. Raw fluorescence units (RFU) were converted to percent effect relative to the average of the ZPE and HPE. Percent effect = (sample luminescence − average ZPE)/(average HPE − average ZPE)×100. […] Each replicate was plotted as percent effect versus log[concentration], and replicates with maximal responses between 20 and 250% were used for EC50 calculations. Relative EC50 was calculated using an [Agonist] versus response–variable slope four-parameter model where Y=Bottom+(X^Hillslope)∗(Top-Bottom)/(X^HillSlope+EC50^HillSlope) . For compounds with multiple replicates, the relative EC50 of each replicate was averaged.

Setting [3] is: EC50 of the individual assay date/plate (assay date), read-out: EC50.
[4] abbreviates: Figure 1E Summary, third list (n = 39), read-out: Reported Metric (Summary list).
The mark [5] stands for this setting: HEK-293T, single replicate, normalised response.
The mark [6] stands for this setting: HEK-293T, 100 uM, normalised response.
Where [7] appears, read: relative EC50, percent effect relative to 10 μM FMRFa3, read-out: EC50.
The mark [8] stands for this setting: sheet Figure 3C, unit inferred, read-out: EC50.
Where [9] appears, read: summary EC50 per compound (mean over assay dates), the unit is taken from the neighbouring EC50 (uM) column, read-out: Reported Metric.

pEC50: −log10 of the molar value. Values joined by “and” are separate entries in the source; they are usually repeats but may differ in a detail not shown here. Equal entries are not always repeated. Where two headings read alike, the source gives them in different places.

Sequence of Ae. aegypti NPYLR7 (U5N1H5 entry or part of it): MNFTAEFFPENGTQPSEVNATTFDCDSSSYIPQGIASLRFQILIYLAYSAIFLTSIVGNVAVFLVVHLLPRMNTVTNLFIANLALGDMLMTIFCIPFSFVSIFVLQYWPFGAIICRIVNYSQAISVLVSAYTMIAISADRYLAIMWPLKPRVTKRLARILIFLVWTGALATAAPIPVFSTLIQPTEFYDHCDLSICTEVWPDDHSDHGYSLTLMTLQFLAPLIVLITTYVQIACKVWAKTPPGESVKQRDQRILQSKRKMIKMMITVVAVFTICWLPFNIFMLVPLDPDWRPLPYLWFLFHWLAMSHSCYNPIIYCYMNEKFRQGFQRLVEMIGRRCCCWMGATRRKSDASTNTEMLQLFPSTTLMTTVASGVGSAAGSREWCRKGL

As for `COc1ccc(COc2ccc3c(C)nc(NC(=N)N)nc3c2)cc1OC` [TDI-014180], the “Host-seeking relative to saline (test compound % host-seeking/average matched saline % host-seeking)” value in test [1] (individual replicates, listed as TDI-04180) is given as 0.93. The “Attraction (relative to saline)” value in test [1] was determined as 0.93. The pEC50 in test [2] (setting [3]), in test [2] (setting [4]) and in test [2] (setting [7]) was 8.72 throughout. Besides, the activation at 0.0152 µM in test [2] (HEK-293T, 0.0152 uM, single replicate, normalised response) came to 42.4%. The activation at 0.0457 µM in test [2] (setting [5]) is 59.4%. In test [2] (setting [5]), the activation at 0.1372 µM came to 67.9%. The activation at 0.4115 µM in test [2] (HEK-293T, 0.4115 uM, single replicate, normalised response) was determined as 85.1%. Also, the activation at 3.7037 µM in test [2] (HEK-293T, 3.7037 uM, single replicate, normalised response) was found to be 96.7%. For the same compound, the activation at 11.1111 µM in test [2] (setting [5]) came to 74%. Further, in test [2] (HEK-293T, 33.3333 uM, single replicate, normalised response), the activation at 33.3333 µM is 81.8%. In addition, the activation at 100 µM in test [2] (setting [6]) came out at 63.8%. Further, the EC50 in test [2] (setting [8]) and in test [2] (setting [9]) was 0.00192 µM in each case.

For the compound `Cc1nc(NC(=N)N)nc2cc(OC(F)F)ccc12` [TDI-012615], the “Attraction (relative to saline)” value in test [1] is given as 0.94. In addition, the RFU is 74 RFU and 66 RFU in test [2] (0.00169350878084303uM); 74 RFU and 63 RFU in test [2] (0.00508052634252909uM); 71 RFU and 60 RFU in test [2] (0.0152415790275873uM); 57 RFU and 73 RFU in test [2] (0.0457247370827618uM); 57 RFU and 91 RFU in test [2] (0.137174211248285uM); 153 RFU and 157 RFU in test [2] (0.411522633744856uM). The RFU is 207 RFU and 271 RFU in test [2] (1.23456790123457uM); 247 RFU and 267 RFU in test [2] (3.7037037037037uM); 339 RFU and 333 RFU in test [2] (11.1111111111111 uM); 353 RFU and 317 RFU in test [2] (33.333333 uM); 434 RFU and 405 RFU in test [2] (100 uM). The pEC50 in test [2] (setting [4]) is 5.79; in test [2] (Figure 1E, EC50 of the single assay date/plate, read-out: EC50), 5.88 and 5.71; in test [2] (Figure 1E, metric reported per compound, repeated on every replicate line, read-out: Reported Metric (EC50)) it was 5.79; in test [2] (setting [7]) it was 5.79.

As to `Cc1nc(NC(=N)N)nc2cc(OCC3CCCCO3)ccc12` (stereo not drawn) [TDI-014192], the “Attraction (relative to saline)” value in test [1] stood at 1.035. The pEC50 is 5.24 in test [2] (setting [3]); 5.24 in test [2] (Figure 1E Summary, second list (n = 48), read-out: Reported Metric (Summary list)); 5.24 in test [2] (setting [7]). Further, the activation at 11.1111 µM in test [2] (setting [5]) was 55.1%. The activation at 100 µM in test [2] (setting [6]) came out at 67.4%. For the same compound, the EC50 in test [2] (setting [8]) and in test [2] (setting [9]) was 5.76 µM each time.

Regarding `COc1ccc(COc2ccc3c(C)nc(NC(=N)N)nc3c2)cc1` [TDI-013000], the “Attraction (relative to saline)” value in test [1] is on record as 0.925. For the same compound, the pEC50 in test [2] (setting [4]) was 7.56; in test [2] (Figure 1E summary value per compound, repeated on each replicate line, read-out: Reported Metric (EC50 summarised over assay dates)), 7.56; in test [2] (fit per assay date/plate (c2), repeated on the replicate lines of one date, read-out: EC50), 7.09 and 7.55; in test [2] (setting [7]), 7.56. Moreover, the EC50 in test [2] (summary value per compound, matches the mean of the EC50 (uM) values of the assay dates, column head prints no unit, Figure 1 Panel E, read-out: Reported Metric) came to 0.0277 µM.

Turning to `CNc1nc(NC(=N)N)nc2cc(OCc3ccc(OC)cc3)c(OC)cc12` [TDI-014185], the “Attraction (relative to saline)” value in test [1] was 0.79. For the same compound, the pEC50 in test [2] (setting [3]), in test [2] (setting [4]) and in test [2] (setting [7]) was 7.76 in each case. For the same compound, in test [2] (setting [5]), the activation at 0.0457 µM was 70.6%. Moreover, in test [2] (setting [5]), the activation at 0.1372 µM was determined as 69.2%. For the same compound, the activation at 11.1111 µM in test [2] (setting [5]) was 79.9%. For the same compound, the EC50 in test [2] (setting [8]) and in test [2] (setting [9]) was 0.0175 µM each time.
